Assay results: PMC5537602, “TRPA1 channel mediates organophosphate-induced delayed neuropathy” (Cell Discovery, 2017)
Read-outs that look alike come from different tables or passages of the source.

Tests used:
hTRPA1 = molecular target: T1, hTRPA1 (Homo sapiens, UniProt O75762); assay: cell-based; type: cell-based; details: for activation of hTRPA1 whole-cell currents by NTE inhibitors: 100 μM; for activation of hTRPA1 whole-cell currents: 30 μM, calcium-free external solution
T1 construct: expressed in transfected cells; host or cells: HEK293, transient, EGFP plasmid co-transfected
T1 sequence (O75762 whole entry): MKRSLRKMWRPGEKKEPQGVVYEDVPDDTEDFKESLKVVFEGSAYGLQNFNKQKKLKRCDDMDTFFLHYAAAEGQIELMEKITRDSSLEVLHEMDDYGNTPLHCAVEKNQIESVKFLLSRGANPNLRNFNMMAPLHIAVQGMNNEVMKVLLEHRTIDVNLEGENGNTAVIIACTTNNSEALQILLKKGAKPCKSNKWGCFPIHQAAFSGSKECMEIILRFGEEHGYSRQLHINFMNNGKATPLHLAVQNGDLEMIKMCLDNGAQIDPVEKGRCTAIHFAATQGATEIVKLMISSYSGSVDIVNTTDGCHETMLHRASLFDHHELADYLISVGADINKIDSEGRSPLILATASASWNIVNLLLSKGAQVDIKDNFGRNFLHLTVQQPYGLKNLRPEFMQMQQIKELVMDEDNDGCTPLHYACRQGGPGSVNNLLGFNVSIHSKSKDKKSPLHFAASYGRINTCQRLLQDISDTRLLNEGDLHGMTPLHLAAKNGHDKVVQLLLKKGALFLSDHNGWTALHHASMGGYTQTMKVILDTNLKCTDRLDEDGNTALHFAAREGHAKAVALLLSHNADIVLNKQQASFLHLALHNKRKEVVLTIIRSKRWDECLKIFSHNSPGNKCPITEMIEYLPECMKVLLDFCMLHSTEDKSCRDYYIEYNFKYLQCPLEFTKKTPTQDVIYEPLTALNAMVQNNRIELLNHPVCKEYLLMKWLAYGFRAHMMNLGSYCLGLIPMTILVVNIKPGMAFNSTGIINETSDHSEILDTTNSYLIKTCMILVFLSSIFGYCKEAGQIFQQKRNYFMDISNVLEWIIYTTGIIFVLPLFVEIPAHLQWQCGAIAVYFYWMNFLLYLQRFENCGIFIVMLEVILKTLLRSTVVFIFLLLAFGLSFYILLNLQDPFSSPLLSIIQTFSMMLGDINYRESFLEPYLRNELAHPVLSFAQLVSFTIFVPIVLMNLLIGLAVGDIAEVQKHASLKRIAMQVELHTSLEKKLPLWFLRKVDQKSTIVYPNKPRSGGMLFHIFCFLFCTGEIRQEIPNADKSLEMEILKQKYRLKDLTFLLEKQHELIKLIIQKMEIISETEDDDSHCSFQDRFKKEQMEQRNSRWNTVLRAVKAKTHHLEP
Description: Human embryonic kidney 293 (HEK293) cells were cultured in DMEM containing 10% (vol/vol) heat-inactivated fetal bovine serum, 100 units ml^−1 penicillin–streptomycin and 2 mM L-glutamine at 37 °C in a humidity-controlled sterile incubator with 5% CO2. All cell culture reagents were purchased from Life Technologies. HEK293 cells were transfected transiently with the corresponding plasmids using lipofectamine 2000 (Life Technologies). Transfection efficiency was monitored by co-transfecting EGFP plasmid which codes for the enhanced green fluorescent protein. Electrophysiological recordings were performed between 24 and 36 h after transfection.
Whole-cell patch-clamp recordings in DRG neurons (small diameter, […]) and HEK293 cells were operated at room temperature (23–25 °C) using EPC-10 amplifier and Patch Master Software (HEKA). […] Currents were sampled at 10 kHz and low-pass filtered at 2.9 kHz. The internal solution was as follows (in mM): 140 CsCl, 10 HEPES, 5 EGTA, 0.1 CaCl2 and 1 MgCl2, with pH adjusted to 7.2 by CsOH and osmolarity 295–300 mOsm. The calcium-free external solution contained (in mM) 140 NaCl, 5 KCl, 0.5 EGTA, 1 MgCl2, 10 Glucose and 10 HEPES, with pH adjusted to 7.4 by NaOH and osmolarity 300–310 mOsm. The 0.5 mM EGTA was replaced by 2 mM CaCl2 for the recordings in DRG neurons. TRPA1 currents development was monitored with repetitive injections of 300 ms duration voltage ramps from −100 to +100 mV every 2 s and the holding potential was set to 0 mV for 50 ms, existing in both sides of the voltage ramp. To record inward currents in DRG neurons, we conducted voltage clamp at holding membrane potential of −70 mV. Solutions were switched using a gravity-fed continuous focal perfusion system.

mTRPA1 = mTRPA1 (Mus musculus, UniProt Q8BLA8); assay: FDSS Ca2+-influx assay, HEK293 cells stably expressing mTRPA1; type: cell-based; set-up: expressed in transfected cells
mTRPA1, sequence (Q8BLA8 whole entry): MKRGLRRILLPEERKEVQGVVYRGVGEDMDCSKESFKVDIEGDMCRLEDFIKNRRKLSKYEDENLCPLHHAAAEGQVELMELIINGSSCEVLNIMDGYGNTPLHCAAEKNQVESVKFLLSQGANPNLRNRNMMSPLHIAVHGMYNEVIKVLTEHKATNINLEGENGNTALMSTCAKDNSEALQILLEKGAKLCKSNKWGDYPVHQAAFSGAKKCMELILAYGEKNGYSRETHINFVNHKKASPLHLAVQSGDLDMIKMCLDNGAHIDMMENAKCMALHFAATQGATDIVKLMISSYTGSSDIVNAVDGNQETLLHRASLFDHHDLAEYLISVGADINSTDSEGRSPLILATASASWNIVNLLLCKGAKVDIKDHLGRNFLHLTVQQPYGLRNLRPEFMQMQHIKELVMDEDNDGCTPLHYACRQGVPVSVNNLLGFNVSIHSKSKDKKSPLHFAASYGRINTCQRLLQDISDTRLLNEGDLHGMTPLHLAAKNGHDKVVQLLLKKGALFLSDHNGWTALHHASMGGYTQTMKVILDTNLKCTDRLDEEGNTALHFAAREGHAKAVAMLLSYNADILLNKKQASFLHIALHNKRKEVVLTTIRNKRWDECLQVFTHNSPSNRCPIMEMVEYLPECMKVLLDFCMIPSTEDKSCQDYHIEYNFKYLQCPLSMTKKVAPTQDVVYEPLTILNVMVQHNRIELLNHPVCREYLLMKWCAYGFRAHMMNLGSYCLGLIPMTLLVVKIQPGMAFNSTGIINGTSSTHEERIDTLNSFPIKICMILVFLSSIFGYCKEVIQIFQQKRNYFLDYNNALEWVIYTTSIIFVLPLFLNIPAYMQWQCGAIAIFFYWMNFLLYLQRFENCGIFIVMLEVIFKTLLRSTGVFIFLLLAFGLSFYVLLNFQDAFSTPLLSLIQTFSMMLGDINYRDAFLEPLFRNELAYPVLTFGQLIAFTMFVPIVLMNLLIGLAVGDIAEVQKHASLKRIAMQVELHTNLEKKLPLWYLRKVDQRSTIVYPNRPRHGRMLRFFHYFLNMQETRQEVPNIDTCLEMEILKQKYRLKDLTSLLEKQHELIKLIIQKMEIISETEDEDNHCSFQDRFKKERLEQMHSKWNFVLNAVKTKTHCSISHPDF
Description: Ca^2+-influx assays were carried out using HEK293 cells stably expressing mTRPA1 channels with an FDSS screening system (Hamamatsu, Japan). Before the start of the assay, HEK293-mTRPA1 cells were plated onto poly-D-Lysine (40 μg ml^−1) coated 96-well black clear bottom plate with the cell density of 300 000 cells per milliliter in DMEM supplemented with 10% (vol/vol) fetal bovine serum, 200 μg ml^−1 Hygromycin B, 15 μg ml^−1 Blasticidin S HCL and 0.3 μg ml^−1 doxycycline, which could induce the expression of mTRPA1. The 96-well plate was then put in sterile incubator overnight. The following day, Ca^2+ influx dye Fluo-4/AM stock was diluted to 2 μM with bath solution, and added (50 μl per well) in place of the culture medium. The plate was then incubated to load the Fluo-4/AM into cells for 60 min at 37 °C in dark environment. During the incubation, we prepared the compound plate (96-well) and the margin of plate was set as blank control due to the fringing effect. At the end of dye loading period, the remnant dye was removed using bath solution to wash the 96-well cell plate twice and then add 80 μl bath solution per well.

| SMILES | activation of hTRPA1 whole-cell currents by NTE inhibitors (hTRPA1) | EC50 (mTRPA1; HEK293 cells, change in [Ca2+]i, read-out: EC50, activation of mTRPA1) | activation of hTRPA1 whole-cell currents (hTRPA1) | EC50 (mTRPA1) |
| --- | --- | --- | --- | --- |
| O=S(=O)(Cl)c1ccccc1 [Benzenesulfonyl chloride] | activated | – | – | – |
| CCSC(=O)N(CC(C)C)CC(C)C [Butylate] | activated | – | – | – |
| CCOC(=O)OCC [Ethyl carbonate] | activated | – | – | – |
| O=S(=O)(Cl)Cc1ccccc1 [Phenylmethanesulfonyl chloride] | activated | – | – | – |
| CCOP(=S)(OCC)Oc1nc(Cl)c(Cl)cc1Cl [chlorpyrifos] | – | 10 to 40 µM | activated | – |
| COP(=S)(OC)Oc1ccc(SC)c(C)c1 [fenthion] | – | – | activated | 10 to 40 µM |
| COc1nn(CSP(=S)(OC)OC)c(=O)s1 [methidathion] | – | – | activated | 10 to 40 µM |
| COP(=O)(OC)OC(Br)C(Cl)(Cl)Br (centres unmarked) [naled] | – | – | activated | 10 to 40 µM |
| CCOP(=S)(OCC)O/N=C(\C#N)c1ccccc1 [phoxim] | – | – | activated | 10 to 40 µM |
